Measured values as given in patent US12364702B2, “Highly active sting protein agonist compound” (ADLAI NORTYE BIOPHARMA CO., LTD., priority 2018, dated 2025).
Like-named read-outs stand apart in the source and are kept apart here.

Columns and labels:
Assay type in all cases: cell-based
STING WT variant = target: T1, STING WT variant (Homo sapiens, UniProt Q86WV6); test: SEAP reporter assay in HEK-Blue ISG KO-STING cells transfected with STING WT variant (Method 1); conditions: 24 h, SEAP signal vs 0.5% DMSO
T1 construct: host or cells: HEK-Blue ISG KO-STING cells (Invivogen, hkb-kostg)
Text: (§1) Activation of STING can be determined using a SEAP reporter assay in HEK-Blue™ ISG KO-STING cells (Invivogen, cat #hkb-kostg) transfected with plasmids expressing STING variants (WT & HAQ) (referred to WO2017/175147A1). STING variants (WT & HAQ) vector were constructed based on STING-232H vector (Origene, RC208418). GFP vector (VT2069) was bought from Youbio. The detailed protocol as follows: HEK-Blue™ ISG KO-STING cells were harvest and seeding into 96 well plate, the final cell number was 0.8×10^5 cells/well. Transfections were prepared using Lipofectamine 2000 (Invitrogen, Cat #11668-027) following the manufacturer's instructions (Lipo2000/DNA=1/10), 20 ul of transfection suspension containing 1 ng STING vector was added to cell culture plate and incubated at 37° C., 5% CO2 for 24 hours. After 24 hours' incubation, compounds were added at proper concentration, and the final DMSO concentration was 0.5%. After 24 h incubation, the supernatant was collected to detect SEAP signal using Great EscAPe SEAP chemiluminescence KIT (Clontech, cat #631738) and cells were collected to detect cell viability using CellTiter-Glo Luminescent Cell Viability Assay (Promega, cat #G7573) following the manufacturer's instructions. The data were described by the ratio of the stimulating signal of compounds to 0.5% DMSO.

STING HAQ variant = target: T2, STING HAQ variant (Homo sapiens, UniProt Q86WV6, G230A/R293Q/R71H); test: SEAP reporter assay in HEK-Blue ISG KO-STING cells transfected with STING HAQ variant (Method 1); conditions: 24 h, SEAP signal vs 0.5% DMSO
T2 construct: host or cells: HEK-Blue ISG KO-STING cells (Invivogen, hkb-kostg)
T2 sequence (Q86WV6 whole entry R71H/G230A/R293Q): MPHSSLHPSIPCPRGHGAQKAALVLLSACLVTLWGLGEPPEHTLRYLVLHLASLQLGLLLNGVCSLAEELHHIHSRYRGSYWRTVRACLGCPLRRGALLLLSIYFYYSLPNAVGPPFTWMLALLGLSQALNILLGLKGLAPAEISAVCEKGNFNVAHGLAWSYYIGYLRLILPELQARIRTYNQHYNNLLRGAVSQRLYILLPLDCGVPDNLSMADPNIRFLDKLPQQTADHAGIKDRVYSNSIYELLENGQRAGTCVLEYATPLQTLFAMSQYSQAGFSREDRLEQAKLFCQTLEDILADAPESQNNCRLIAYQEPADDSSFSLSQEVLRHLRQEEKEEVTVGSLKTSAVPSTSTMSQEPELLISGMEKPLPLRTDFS
Text: as §1

STING = STING (Homo sapiens, UniProt Q86WV6); test: IFN-β secretion from THP1 by STING activation (hIFNβ ELISA)
Chain of STING (Q86WV6 whole entry): as the sequence (Q86WV6 whole entry R71H/G230A/R293Q) above, with H71R, A230G, Q293R counted along it
Method: In this assay, activation of STING by compounds was evaluated by detecting their ability to stimulate the secretion of IFN-β (interferon-beta) from THP1. THP1 was purchased from National Collection of Authenticated Cell Cultures (Cat #TCHu 57). The top dose of compounds was setted according to their solubility. First, Compounds were 3 times diluted with medium, 8-dose points in total. The final DMSO concentration was 0.2%. THP1 during the logarithmic phase was resuspended to 2×10^6 cells/ml in assay medium. The THP1-cell suspension was dispensed into a 96-well U bottom plate containing 50 ul of compound diluted in medium. After 24 h incubation at 37° C., 5% CO2, the supernatant was collected. The concentration of IFN-β in the supernatant was measured using a human IFNβ ELISA KIT (R&D, DY814-05). The data was fitted with GraphPad Prism or XLfit to calculate EC50 values.

[1] = THP1 cells; 24 h incubation; IFN-β in supernatant; top dose set according to solubility
[2] = 1 ng STING vector, compound 2.5 uM
[3] = 1 ng STING vector, compound 5 uM
[4] = THP1 cells; 24 h incubation; IFN-β in supernatant; top dose set according to solubility; read-out: hIFNβ ELISA (EC50)

hIFNβ ELISA (EC50, μM) (STING; [1]) | Fold change related to DMSO control WT (STING WT variant; [2]) | Fold change related to DMSO control HAQ (STING HAQ variant; [3]) | EC50 (STING; [4]) [µM] | Structure (SMILES) | further results
inactive | – | – | – | CCn1nc(C)cc1C(=O)Nc1nc2cc(C(N)=O)cc(OCCCOC)c2n1CC[C@H]1COc2cc(C(N)=O)cc3nc(NC(=O)c4cc(C)nn4CC)n1c23 [Example 7, (S)-3-(2-(5-carbamoyl-2-(1-ethyl-3-methyl-1H-pyrazole-5-carboxamido)-7-(3-methoxypropoxy)-1H-benzo[d]imidazol-1-yl)ethyl)-2-(1-ethyl-3-methyl-1H-pyrazole-5-carboxamido)-3,4-dihydro-5-oxa-1,2a-diazaacenaphthylene-7-carboxamide] | Fold change related to DMSO control WT (STING WT variant; compound 80.2 uM): 1.96; Fold change related to DMSO control HAQ (STING HAQ variant; compound 80.2 uM): 20.29
inactive | 2.14 | 23.71 | – | CCn1nc(C)cc1C(=O)Nc1nc2cc(C(N)=O)cc(OCCCS(C)(=O)=O)c2n1CCC[C@H]1COc2cc(C(N)=O)cc3nc(NC(=O)c4cc(C)nn4CC)n1c23 [Example 37, (S)-3-(3-(5-carbamoyl-2-(1-ethyl-3-methyl-1H-pyrazole-5-carboxamido)-7-(3-(methylsulfonyl)propoxy)-1H-benzo[d]imidazol-1-yl)propyl)-2-(1-ethyl-3-methyl-1H-pyrazole-5-carboxamido)-3,4-dihydro-5-oxa-1,2a-diazaacenaphthylene-7-carboxamide] | –
– | 2.40 | 47.36 | 3.9 | CCn1nc(C)cc1C(=O)Nc1nc2cc(C(N)=O)cc(OCCCNC(C)=O)c2n1CCC[C@H]1COc2cc(C(N)=O)cc3nc(NC(=O)c4cc(C)nn4CC)n1c23 [Example 22, (S)-3-(3-(7-(3-acetamidopropoxy)-5-carbamoyl-2-(1-ethyl-3-methyl-1H-pyrazole-5-carboxamido)-1H-benzo[d]imidazol-1-yl)propyl)-2-(1-ethyl-3-methyl-1H-pyrazole-5-carboxamido)-k, 3,4-dihydro-5-oxa-1,2a-diazaacenaphthylene-7-carboxamide] | –
inactive | 1.98 | 16.63 | – | COCCCOc1cc(C(N)=O)cc2nc(NC(=O)c3cc(C)nn3CCF)n(CCC[C@H]3COc4cc(C(N)=O)cc5nc(NC(=O)c6cc(C)nn6CCF)n3c45)c12 [Example 10, (S)-3-(3-(5-carbamoyl-2-(1-(2-fluoroethyl)-3-methyl-1H-pyrazole-5-carboxamido)-7-(3-methoxypropoxy)-1H-benzo[d]imidazol-1-yl)propyl)-2-(1-(2-fluoroethyl)-3-methyl-1H-pyrazole-5-carboxamido)-3,4-dihydro-5-oxa-1,2a-diazaacenaphthylene-7-carboxamide] | –
inactive | – | – | – | CCn1nc(C)cc1C(=O)Nc1nc2cc(C(N)=O)cc(OCCCOC)c2n1CCC[C@H]1COc2cc(-c3nn[nH]n3)cc3nc(NC(=O)c4cc(C)nn4CC)n1c23 [Example 26, (S)-2-(1-ethyl-3-methyl-1H-pyrazole-5-carboxamido)-1-(3-(2-(1-ethyl-3-methyl-1H-pyrazole-5-carboxamido)-7-(2H-tetrazol-5-yl)-3,4-dihydro-5-oxa-1,2a-diazaacenaphthylen-3-yl)propyl)-7-(3-methoxypropoxy)-1H-benzo[d]imidazole-5-carboxamide] | –
– | – | – | 11.7 | CCn1nc(C)cc1C(=O)Nc1nc2cc(C(N)=O)cc(OCCCN(C)C(=O)CN(C)C)c2n1CCC[C@H]1COc2cc(C(N)=O)cc3nc(NC(=O)c4cc(C)nn4CC)n1c23 [Example 28, (S)-3-(3-(5-carbamoyl-7-(3-(2-(dimethylamino)-N-methylacetamido)propoxy)-2-(1-ethyl-3-methyl-1H-pyrazole-5-carboxamido)-1H-benzo[d]imidazol-1-yl)propyl)-2-(1-ethyl-3-methyl-1H-pyrazole-5-carboxamido)-3,4-dihydro-5-oxa-1,2a-diazaacenaphthylene-7-carboxamide] | –
– | – | – | > 5.6 | CCn1nc(C)c2c1C(=O)Nc1nc3cc(C(N)=O)cc(OCCCOC)c3n1CCC[C@H]1COc3cc(C(N)=O)cc4nc(n1c34)NC(=O)c1cc(C)nn1CCCCC2 [Example 59, (S)-17-ethyl-24-(3-methoxypropoxy)-8,15-dimethyl-6,18-dioxo-5,6,10,11,12,13,14,17, 18, 19, 26, 27, 27a,28-tetradecahydro-25H-29-oxa-4,4a1,5,9,9a,16, 17, 19, 20, 24b-decaazadicyclopenta[11, 12:18,19]indeno[1′,2′:7,8]cyclohenicosa[1,2,3-bc]acenaphthylene-2,22-dicarboxamide] | –
– | – | – | > 4.3 | CCn1nc(C)c2c1C(=O)Nc1nc3cc(C(N)=O)cc4c3n1[C@@H](CCCn1c(nc3cc(C(N)=O)cc(OCCCOC)c31)NC(=O)c1cc(C)nn1CCCCC2)CO4 [Example 58, (S)-7-Ethyl-24-(3-methoxypropoxy)-9,16-dimethyl-6,18-dioxo-5,6,7,10,11,12,13,14,18,19,26,27,27a,28-tetradecahydro-25H-29-oxa-4,4a1,5,7,8,14a,15,19,20,24b-decaaza-dicyclopenta[11, 12:18,19]indeno[1′,2′:7,8]cyclohenicosa[1,2,3-bc]acenaphthylene-2,22-dicarboxamide] | –
– | 1.83 | 27.74 | – | CCn1nc(C)cc1C(=O)Nc1nc2cc(C(N)=O)cc(OCCCOC)c2n1CCC[C@H]1COc2cc(C#N)cc3nc(NC(=O)c4cc(C)nn4CC)n1c23 [Example 11, (S)-1-(3-(7-cyano-2-(1-ethyl-3-methyl-1H-pyrazole-5-carboxamido)-3,4-dihydro-5-oxa-1,2a-diazaacenaphthylen-3-yl)propyl)-2-(1-ethyl-3-methyl-1H-pyrazole-5-carboxamido)-7-(3-methoxypropoxy)-1H-benzo[d]imidazole-5-carboxamide] | –

Structure (SMILES) | hIFNβ ELISA (EC50, μM) (STING; [1]) | Fold change related to DMSO control WT (STING WT variant; [2]) | Fold change related to DMSO control HAQ (STING HAQ variant; [3]) | EC50 (STING; [4]) [µM] | further results
CCn1nc(C)cc1C(=O)Nc1nc2cc(C(N)=O)cc(OCCCCNC)c2n1CCC[C@H]1COc2cc(C(N)=O)cc3nc(NC(=O)c4cc(C)nn4CC)n1c23 [Example 23, (S)-3-(3-(5-carbamoyl-2-(1-ethyl-3-methyl-1H-pyrazole-5-carboxamido)-7-(4-(methylamino)butoxy)-1H-benzo[d]imidazol-1-yl)propyl)-2-(1-ethyl-3-methyl-1H-pyrazole-5-carboxamido)-3,4-dihydro-5-oxa-1,2a-diazaacenaphthylene-7-carboxamide] | – | 2.82 | 38.85 | 1.1 | –
CCn1nc(C)cc1C(=O)Nc1nc2cc(C(N)=O)cc(OCCCN)c2n1CCC[C@H]1COc2cc(C(N)=O)cc3nc(NC(=O)c4cc(C)nn4CC)n1c23.Cl [Example 14, (S)-3-(3-(7-(3-aminopropoxy)-5-carbamoyl-2-(1-ethyl-3-methyl-1H-pyrazole-5-carboxamido)-1H-benzo[d]imidazol-1-yl)propyl)-2-(1-ethyl-3-methyl-1H-pyrazole-5-carboxamido)-3,4-dihydro-5-oxa-1,2a-diazaacenaphthylene-7-carboxamide] | – | 2.17 | 16.68 | – | EC50 (STING; read-out: hIFNβ ELISA (EC50); THP1 cells; 24 h incubation; IFN-β in supernatant; top dose set according to solubility): > 13.7 µM
